According to US10562842B2, “Use of polyaminoisoprenyl derivatives in antibiotic or antiseptic treatment” (UNIVERSITE D'AIX-MARSEILLE, priority 2011, dated 2020):
In brackets after ≈: the same amount, converted by molar mass.

Legend:
ATCC 19606 = assay: MIC by broth dilution (intrinsic MIC); assay type: cell-based; settings: Acinetobacter baumannii, ATCC19606; Acinetobacter ATCC 19606
Protocol: (§1) Susceptibilities to antibiotics and compounds were determined in microplates by broth dilution method, as previously described. Minimal Inhibitory Concentrations (MICs) were determined with an inoculum of 10^6 CFU in 200 μL of MH broth containing two-fold serial dilutions of each drug. […] All MIC determinations were repeated at least three times in independent experiments.

ATCC 13048 = assay: MIC by broth dilution (intrinsic MIC); assay type: cell-based; settings: Klebsiella aerogenes, ATCC13048; Enterobacter ATCC 13048
Protocol: as §1

PA124 = assay: MIC by broth dilution (intrinsic MIC); assay type: cell-based; settings: Pseudomonas aeruginosa
Protocol: as §1

Ea27 = assay: MIC by broth dilution (intrinsic MIC); assay type: cell-based; settings: Klebsiella aerogenes; Enterobacter Ea27
Protocol: as §1

PAO1 = assay: MIC by broth dilution (intrinsic MIC); assay type: cell-based; settings: Pseudomonas aeruginosa
Protocol: as §1

AB1 = assay: MIC by broth dilution (intrinsic MIC); assay type: cell-based; settings: Acinetobacter baumannii
Protocol: as §1

AG100 = assay: MIC by broth dilution (intrinsic MIC); assay type: cell-based; settings: Escherichia coli AG100
Protocol: as §1

[1] = system: strain IV2571223 - Escherichia coli pig (sensible); assay: MIC of antibiotics in the presence and absence of test compound, veterinary strains; assay type: cell-based; design: MIC for strain IV2571223, Doxycycline in the presence of test compound: unit not given beside the values; settings: compound at the Concentration (μM) (2-50)
Protocol: For each strain and each antibiotic, the MICs were determined in the presence and in the absence of one test compound.

[2] = system: Enterobacter aerogenes MDR Ea289; assay: MIC of antibiotics ± test compound (MIC ratio), micro-broth dilution; assay type: cell-based; settings: compound at MIC/4, Set 2; for MIC ratio (*) on Ea289 Dox: doxycycline; for MIC ratio (*) on Ea289 Nal: nalidixic acid
[3] = Tolerance in mice, intraperitoneal route; assay type: in vivo; settings: day 2, Compound 5 8.8 mg/kg, 8 1.46 mg/kg, 11 0.45 mg/kg, 14 0.35 mg/kg, 12 6.3 mg/kg
Protocol: Mice were administered with increasing doses of test compounds by intraperitoneal route.
The mice were sacrificed on day 2 after the injection of the test compound and autopsied. No morphological anomaly was observed. Liver, lung, kidney and intestine of each mouse were fixed and analysed.

BN10055ΔacrB = assay: MIC of antibiotics ± test compound (MIC ratio), micro-broth dilution; assay type: cell-based, Salmonella enterica serovar Typhimurium; settings: compound at MIC/4; for MIC ratio Chloramphenicol S. enterica BN1005ΔacrB / MIC ratio Doxycycline S. enterica BN1005ΔacrB / MIC ratio Nalidixic acid S. enterica BN1005ΔacrB: Example 4
Protocol: (§2) The Enterobacter aerogenes Ea289 strain is a Kans derivative of the MDR clinical isolate Ea27, the acrB mutant, EaEP294, was constructed from Ea289. Multidrug-resistant Salmonella enterica serovar Typhimurium DT104 strains (BN10055) was isolated from cattle in France, the isogenic acrB derivative mutant, BN10055ΔacrB, was constructed from BN10055. Strains were maintained at −80° C. in 25% (v/v) glycerol for cryoprotection. Bacteria were routinely grown in Mueller-Hinton (MH) broth at 37° C.
as §1
(§3) […] All MIC determinations were repeated at least three times in independent experiments. The MIC ratio corresponds to the ratio of the MIC of an antibiotic alone to the MIC of the same antibiotic in the presence of the tested compound (at MIC/4).
(§4) For reminder, the MIC ratio corresponds to the ratio of the MIC of the assessed antibiotic alone to the MIC of the same antibiotic in the presence of the tested compound (at MIC/4).

[4] = system: Salmonella Thyphimurium MDR BN10055; assay: as above; assay type: cell-based, Salmonella enterica serovar Typhimurium; settings: compound at MIC/4; for MIC ratio (*) on BN10055 Chl: chloramphenicol; for MIC ratio Chloramphenicol S. enterica BN10055 / MIC ratio Doxycycline S. enterica BN10055 / MIC ratio Nalidixic acid S. enterica BN10055: Example 4; for MIC ratio (*) on BN10055 Dox: doxycycline; for MIC ratio (*) on BN10055 Nal: nalidixic acid
Protocol: as §2, §1, §3, §4

CHO-K1 cells = assay type: cell-based; settings: for proliferation index, all the tested concentrations: Chinese hamster, 3 h
Protocol: Genotoxicity of compounds 11 and 14 was assessed by micronucleus test. The micronucleus test was performed on CHO-K1 cells with and without metabolic activation. Metabolic activation is obtained by adding in the medium S9 mix. S9 mix contains NADP, G6P and S9 fraction which is a crude preparation of enzymes obtained from the homogenized liver of rats. Briefly, CHO-K1 cells were cultured in Mc Coy's medium 5A and then transferred in the wells of Lab-Tek chamber slides at a concentration of 100 000 cells/ml. The cells were incubated during 24 h at 37° C. at CO2 (5%). The culture medium was replaced by Mc Coy's 5A medium comprising 10% per volume of S9 mix. The test compounds were added at increased concentrations. After being incubated during three hours at 37° C., the cells were rinsed with phosphate buffer (PBS) and then cultured in Mac Coy's 5A medium containing 3 μg/ml cytochalasine B. After an incubation of 21 hours at 37° C., the cells were rinsed, fixed with methanol and coloured with Giemsa 10% during 20 minutes. For each set of assays, the positive control was 0.05 μg/ml of mitomycine C or 5 μg/ml of benzo-a-pyrene. The negative control was culture medium containing 5% of PBS. The stained cells were then analysed by microscopy for the presence of micronuclei. The proliferation index was determined as follows: IP=(2×BIN+MON)/500. MON: number of mononucleated cells and BIN: number of binucleated cells.

Ea289 = assay: MIC by broth dilution (intrinsic MIC); assay type: cell-based, Enterobacter aerogenes; settings: Klebsiella aerogenes; Enterobacter Ea289
Protocol: as §1

Ea294 = assay: MIC by broth dilution (intrinsic MIC); assay type: cell-based, Enterobacter aerogenes; settings: Klebsiella aerogenes, read-out: intrinsic MIC, Ea294
Protocol: as §1

## CC(C)=CCCC(C)=CCNCCCN(CCCN)CCCN (racemic) [Compound 11, {3-[Bis-(3-amino-propyl)-amino]-propyl}-(3,7-dimethyl-octa-2,6-dienyl)-amine]
ATCC 19606
  MIC: 62 µM (≈ 20.1 µg/mL)
ATCC 13048
  MIC: 31 µM (≈ 10.1 µg/mL)
PA124
  MIC: 62 µM (≈ 20.1 µg/mL)
Ea27
  MIC: 31 µM (≈ 10.1 µg/mL)
PAO1
  MIC: 62 µM (≈ 20.1 µg/mL)
AB1
  MIC: 31 µM (≈ 10.1 µg/mL)
AG100
  MIC: 31 µM (≈ 10.1 µg/mL)
[1]
  MIC for strain IV2571223, Doxycycline in the presence of test compound: 0.03125
  MIC for strain IV2571223, Tylosine in the presence of test compound: 16
[2]
  MIC ratio (*) on Ea289 Dox: 32
  MIC ratio (*) on Ea289 Nal: 8
[3]
  tissue anomaly (liver, lung, kidney, intestine): no significant tissue anomaly
BN10055ΔacrB; chloramphenicol, Set 1
  MIC ratio(*) on BN10055ΔacrB Chl: 2
BN10055ΔacrB
  MIC ratio Chloramphenicol S. enterica BN1005ΔacrB: 2
  MIC ratio Doxycycline S. enterica BN1005ΔacrB: 2
  MIC ratio Nalidixic acid S. enterica BN1005ΔacrB: 2
BN10055ΔacrB; erythromycin, Set 1
  MIC ratio(*) on BN10055ΔacrB Ery: 8
BN10055ΔacrB; nalidixic acid, Set 1
  MIC ratio(*) on BN10055ΔacrB Nal: 2
[4]; Set 1
  MIC ratio (*) on BN10055 Chl: 16
  MIC ratio (*) on BN10055 Nal: 128
[4]; Set 2
  MIC ratio (*) on BN10055 Chl: 16
  MIC ratio (*) on BN10055 Dox: 16
  MIC ratio (*) on BN10055 Nal: 128
[4]
  MIC ratio Chloramphenicol S. enterica BN10055: 16
  MIC ratio Doxycycline S. enterica BN10055: 16
  MIC ratio Nalidixic acid S. enterica BN10055: 128
[4]; erythromycin, Set 1
  MIC ratio(*) on BN10055 Ery: 8
CHO-K1 cells
  genotoxicity in vitro (micronucleus test): not genotoxic in vitro
  proliferation index, all the tested concentrations: higher than 50%
Ea289
  MIC: 31 µM (≈ 10.1 µg/mL)
Ea294
  MIC: 15 µM (≈ 4.87 µg/mL)

## CC(C)=CCC/C(C)=C/CC/C(C)=C/CNCCCN(C)CCCN [Compound 14, {3-[(3-Amino-propyl)-methyl-amino]-propyl}-((2E,6E)-3,7,11-trimethyl-dodeca-2,6,10-trienyl)-amine]
ATCC 19606
  MIC: 62 µM (≈ 21.7 µg/mL)
ATCC 13048
  MIC: 31 µM (≈ 10.8 µg/mL)
PA124
  MIC: 250 µM (≈ 87.4 µg/mL)
Ea27
  MIC: 31 µM (≈ 10.8 µg/mL)
PAO1
  MIC: 250 µM (≈ 87.4 µg/mL)
AB1
  MIC: 62 µM (≈ 21.7 µg/mL)
AG100
  MIC: 62 µM (≈ 21.7 µg/mL)
[1]
  MIC for strain IV2571223, Doxycycline in the presence of test compound: 0.03125
  MIC for strain IV2571223, Tylosine in the presence of test compound: 2
[2]
  MIC ratio (*) on Ea289 Dox: 64
  MIC ratio (*) on Ea289 Nal: 32
[3]
  tissue anomaly (liver, lung, kidney, intestine): no significant tissue anomaly
BN10055ΔacrB
  MIC ratio Chloramphenicol S. enterica BN1005ΔacrB: 2
  MIC ratio Doxycycline S. enterica BN1005ΔacrB: 2
  MIC ratio Nalidixic acid S. enterica BN1005ΔacrB: 4
[4]; Set 2
  MIC ratio (*) on BN10055 Chl: 16
  MIC ratio (*) on BN10055 Dox: 64
  MIC ratio (*) on BN10055 Nal: 128
[4]
  MIC ratio Chloramphenicol S. enterica BN10055: 16
  MIC ratio Doxycycline S. enterica BN10055: 64
  MIC ratio Nalidixic acid S. enterica BN10055: 128
CHO-K1 cells
  genotoxicity in vitro (micronucleus test): not genotoxic in vitro
  proliferation index, all the tested concentrations: higher than 50%
Ea289
  MIC: 31 µM (≈ 10.8 µg/mL)
Ea294
  MIC: 15 µM (≈ 5.24 µg/mL)
